{"source": "patent US20140314697A1", "about": "“Method for Inhibiting Inflammation and Reducing Melanophilin Expression with Glycine Derivatives And the Composition Thereof” (CORUM INC., priority 2013, published 2014)", "key": {"[1]": {"system": "Mlph (melanophilin) protein in B16-F10 cells", "assay": "Reduction of melanophilin expression on translational level (western blot)", "assay_type": "cell-based, Murine", "settings": "B16-F10 w/FSK; for Mlph protein expression level, Average / Mlph protein expression level, Entry 1 / Mlph protein expression level, Entry 2 / Mlph protein expression level, Entry 3: about 48 hours, Positive Control 100%", "description": "Murine melanoma cell line B16-F10 (BCRC No. 60031)\nComplete Medium (as negative control): DMEM with 10% Fetal Bovine Serum\nTesting Medium (as positive control): 20 μM forskolin (FSK) in Complete Medium\na. Rinse the confluent B16-F10 cells with sterile D-PBS then trypsinize all cells and perform cell counting.\nb. Seeding 2.5E+05 cells per 6-cm dish.\nc. Incubate B16F10 cells at 37° C., 5% CO2 for about 24 hours.\nd. Prepared 0.5%/0.25%/0.125% testing material in Testing Medium.\ne. Discard the medium and add 3 mL controls and testing material into B16-F10 cells in 6-cm dish.\nf. Incubate B16-F10 cells at 37° C., 5% CO2 for about 48 hour.\ng. After incubating for about 48 hours, discard the supernatant and wash the B16-F10 cells with sterile D-PBS.\nh. Mlph protein expression is measured by western blot. Western blot conditions: • Loading protein amount: 40 μg/well • Protein transfer by Semi-dry Transfer Apparatus • Immunoblot with Primary Ab (1:250 dilution) at 4° C. overnight • Incubate with secondary Ab (1:5000 dilution) at room temperature for 1 hour • Detection was performed with the ECL system • Relative quantification of protein expression was measured by IMAGEJ free software). β-actin was used as the internal control for normalization • Data Analysis: […]"}, "[2]": {"system": "Human IL-6 secretion, Normal Human Epidermal Keratinocytes (NHEK)", "assay": "Human IL-6 production in UVB-irradiated NHEK (ELISA)", "assay_type": "cell-based", "settings": "for Human IL-6 Content, Average: 40 mJ/cm^2 UVB; for Human IL-6 Content, Average / Human IL-6 Content, Entry 1 / Human IL-6 Content, Entry 2 / Human IL-6 Content, Entry 3 / Human IL-6 Content, Entry4: Positive Control 100%; for Human IL-6 Content, Entry 1 / Human IL-6 Content, Entry 2: passage 2 + 2, 40 mJ/cm^2 UVB; for Human IL-6 Content, Entry 3 / Human IL-6 Content, Entry4: passage 2 + 3, 40 mJ/cm^2 UVB", "description": "Normal Human Epidermal Keratinocytes (NHEK) (PromoCell No. C-12008);\nPositive Control: 40 mJ/cm^2 UVB,\nNegative Control: No UVB irradiation;\na. Rinse the confluent NHEK cells with sterile D-PBS then trypsinize all cells and perform cell counting.\nb. Dilute the cell density to 4˜8E+04/mL and seed 0.5 mL cell liquid (equals to 2˜4E+04 cells) each well in 24 well plate.\nc. Incubate NHEK cells at 37° C., 5% CO2 until subconfluence.\nd. Prepared dosing solution of testing material in Complete Medium: 0.4%, 0.2%, 0.1%, 0.05%.\ne. Rinse the NHEK cells with sterile D-PBS and discard rinse buffer. Add 400 μL of controls and testing materials in different concentrations into NHEK cells in 24 well plates.\nf. Pre-incubate NHEK cells with testing material at 37° C., 5% CO2 for about 6 hours.\ng. After pre-incubating for about 6 hours, wash the NHEK cells with sterile D-PBS for twice then add […] sterile D-PBS for UVB irradiation.\nh. UVB intensity is about 2300 μW/cm^2 and UVB energy is about 40 mJ/cm^2.\ni. After UVB irradiation, discard sterile D-PBS and wash again. Add 400 μL of the same dosing solution in to each wells.\nj. Post-incubate at 37° C., 5% CO2 for about 18 hours.\nk. After post-incubating for 18 hours, collect the supernatant of controls and testing materials.\nl. Determine the IL-6/IL-8 content of the supernatant by R&D ELISA kit as mentioned previously.\nNormal Human Epidermal Keratinocytes (NHEK) were treated by the above-mentioned glycine derivatives for evaluating their anti-inflammatory effect on keratinocytes in this example."}, "NHEK cells": {"system": "NHEK cells", "assay": "Cell viability on NHEK", "assay_type": "cell-based, Human", "settings": "for cell viability on NHEK, Average / cell viability on NHEK, Entry 1 / cell viability on NHEK, Entry 2 / cell viability on NHEK, Entry 3: 40 mJ/cm^2 UVB, Positive Control 100%; for cell viability on NHEK, Entry 1: passage 2 + 2; for cell viability on NHEK, Entry 2 / cell viability on NHEK, Entry 3: passage 2 + 3", "description": "4.4. Cell Viability is Tested by Neutral Red Uptake Experience or MTT Assay."}}, "data": [{"compound": "CC(=O)NCC(=O)NCCC(=O)O", "note": "[Ac-Gly-β-Ala, 3-(2-acetylamino-acetylamino)-propionic acid]", "values": [{"measurement": "Mlph protein expression level, Average", "setting": "[1]; 0.125%", "value": 71.3, "unit": "%"}, {"measurement": "Mlph protein expression level, Entry 1", "setting": "[1]; 0.125%", "value": 66.8, "unit": "%"}, {"measurement": "Mlph protein expression level, Entry 2", "setting": "[1]; 0.125%", "value": 65.7, "unit": "%"}, {"measurement": "Mlph protein expression level, Entry 3", "setting": "[1]; 0.125%", "value": 81.2, "unit": "%"}, {"measurement": "Mlph protein expression level, Average", "setting": "[1]; 0.25%", "value": 62.0, "unit": "%"}, {"measurement": "Mlph protein expression level, Entry 1", "setting": "[1]; 0.25%", "value": 49.4, "unit": "%"}, {"measurement": "Mlph protein expression level, Entry 2", "setting": "[1]; 0.25%", "value": 12.8, "unit": "%"}, {"measurement": "Mlph protein expression level, Entry 3", "setting": "[1]; 0.25%", "value": 123.8, "unit": "%"}, {"measurement": "Mlph protein expression level, Average", "setting": "[1]; 0.5%", "value": 24.3, "unit": "%"}, {"measurement": "Mlph protein expression level, Entry 1", "setting": "[1]; 0.5%", "value": 36.5, "unit": "%"}, {"measurement": "Mlph protein expression level, Entry 2", "setting": "[1]; 0.5%", "value": 10.6, "unit": "%"}, {"measurement": "Mlph protein expression level, Entry 3", "setting": "[1]; 0.5%", "value": 25.8, "unit": "%"}, {"measurement": "effect on Mlph in translational (protein) level", "setting": "[1]", "value": "inhibitory effect"}, {"measurement": "IL-6 production, dose dependence", "setting": "[2]; 0.05%-0.4%, UVB", "value": "dose-dependently inhibited"}, {"measurement": "Human IL-6 Content, Average", "setting": "[2]; Table 6, 0.05%", "value": 59, "unit": "%"}, {"measurement": "Human IL-6 Content, Entry 1", "setting": "[2]; Table 6, 0.05%", "value": 68, "unit": "%"}, {"measurement": "Human IL-6 Content, Entry 2", "setting": "[2]; Table 6, 0.05%", "value": 58, "unit": "%"}, {"measurement": "Human IL-6 Content, Entry 3", "setting": "[2]; Table 6, 0.05%", "value": 49, "unit": "%"}, {"measurement": "Human IL-6 Content, Entry4", "setting": "[2]; Table 6, 0.05%", "value": 62, "unit": "%"}, {"measurement": "Human IL-6 Content, Average", "setting": "[2]; Table 6, 0.10%", "value": 34, "unit": "%"}, {"measurement": "Human IL-6 Content, Entry 1", "setting": "[2]; Table 6, 0.10%", "value": 43, "unit": "%"}, {"measurement": "Human IL-6 Content, Entry 2", "setting": "[2]; Table 6, 0.10%", "value": 25, "unit": "%"}, {"measurement": "Human IL-6 Content, Entry 3", "setting": "[2]; Table 6, 0.10%", "value": 28, "unit": "%"}, {"measurement": "Human IL-6 Content, Entry4", "setting": "[2]; Table 6, 0.10%", "value": 42, "unit": "%"}, {"measurement": "Human IL-6 Content, Average", "setting": "[2]; Table 6, 0.20%", "value": 15, "unit": "%"}, {"measurement": "Human IL-6 Content, Entry 1", "setting": "[2]; Table 6, 0.20%", "value": 19, "unit": "%"}, {"measurement": "Human IL-6 Content, Entry 2", "setting": "[2]; Table 6, 0.20%", "value": 10, "unit": "%"}, {"measurement": "Human IL-6 Content, Entry 3", "setting": "[2]; Table 6, 0.20%", "value": 10, "unit": "%"}, {"measurement": "Human IL-6 Content, Entry4", "setting": "[2]; Table 6, 0.20%", "value": 20, "unit": "%"}, {"measurement": "Human IL-6 Content, Entry 1", "setting": "[2]; Table 6, 0.40%", "value": 0, "unit": "%"}, {"measurement": "Human IL-6 Content, Entry 2", "setting": "[2]; Table 6, 0.40%", "value": 0, "unit": "%"}, {"measurement": "Human IL-6 Content, Entry 3", "setting": "[2]; Table 6, 0.40%", "value": 0, "unit": "%"}, {"measurement": "Human IL-6 Content, Entry4", "setting": "[2]; Table 6, 0.40%", "value": 10, "unit": "%"}, {"measurement": "cell viability on NHEK, Average", "setting": "NHEK cells; 0.01%", "value": 80, "unit": "%"}, {"measurement": "cell viability on NHEK, Entry 1", "setting": "NHEK cells; 0.01%", "value": 80, "unit": "%"}, {"measurement": "cell viability on NHEK, Entry 2", "setting": "NHEK cells; 0.01%", "value": 82, "unit": "%"}, {"measurement": "cell viability on NHEK, Entry 3", "setting": "NHEK cells; 0.01%", "value": 76, "unit": "%"}, {"measurement": "cell viability on NHEK, Average", "setting": "NHEK cells; 0.03%", "value": 84, "unit": "%"}, {"measurement": "cell viability on NHEK, Entry 1", "setting": "NHEK cells; 0.03%", "value": 88, "unit": "%"}, {"measurement": "cell viability on NHEK, Entry 2", "setting": "NHEK cells; 0.03%", "value": 80, "unit": "%"}, {"measurement": "cell viability on NHEK, Entry 3", "setting": "NHEK cells; 0.03%", "value": 83, "unit": "%"}, {"measurement": "cell viability on NHEK, Average", "setting": "NHEK cells; 0.05%", "value": 93, "unit": "%"}, {"measurement": "cell viability on NHEK, Entry 1", "setting": "NHEK cells; 0.05%", "value": 93, "unit": "%"}, {"measurement": "cell viability on NHEK, Entry 2", "setting": "NHEK cells; 0.05%", "value": 90, "unit": "%"}, {"measurement": "cell viability on NHEK, Entry 3", "setting": "NHEK cells; 0.05%", "value": 95, "unit": "%"}, {"measurement": "cell viability on NHEK, Average", "setting": "NHEK cells; 0.10%", "value": 108, "unit": "%"}, {"measurement": "cell viability on NHEK, Entry 1", "setting": "NHEK cells; 0.10%", "value": 109, "unit": "%"}, {"measurement": "cell viability on NHEK, Entry 2", "setting": "NHEK cells; 0.10%", "value": 103, "unit": "%"}, {"measurement": "cell viability on NHEK, Entry 3", "setting": "NHEK cells; 0.10%", "value": 110, "unit": "%"}, {"measurement": "cell viability on NHEK, Average", "setting": "NHEK cells; 0.20%", "value": 109, "unit": "%"}, {"measurement": "cell viability on NHEK, Entry 1", "setting": "NHEK cells; 0.20%", "value": 106, "unit": "%"}, {"measurement": "cell viability on NHEK, Entry 2", "setting": "NHEK cells; 0.20%", "value": 107, "unit": "%"}, {"measurement": "cell viability on NHEK, Entry 3", "setting": "NHEK cells; 0.20%", "value": 113, "unit": "%"}, {"measurement": "cell viability on NHEK, Average", "setting": "NHEK cells; 0.40%", "value": 93, "unit": "%"}, {"measurement": "cell viability on NHEK, Entry 1", "setting": "NHEK cells; 0.40%", "value": 106, "unit": "%"}, {"measurement": "cell viability on NHEK, Entry 2", "setting": "NHEK cells; 0.40%", "value": 95, "unit": "%"}, {"measurement": "cell viability on NHEK, Entry 3", "setting": "NHEK cells; 0.40%", "value": 79, "unit": "%"}, {"measurement": "Cell viability", "setting": "NHEK cells; NHEK, all of dosing solution", "value": "higher than 80%"}]}]}
